# Assays:
# [1] = system: cocklebur; test: Test B pre/postemergence cocklebur; assay type: in vivo, Xanthium strumarium
# Summary of the method: (§1)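 Response is a visual 0-to-10 score relative to untreated plants, where 0 means no effect and 10 means complete control, taken twelve to sixteen days after application. Treatments went onto soil at planting and onto foliage of 1- to 4-leaf plants, using a surfactant-containing non-phytotoxic solvent.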
# [2] = system: corn; test: Test B pre/postemergence corn; assay type: in vivo, Zea mays
# Summary of the method: as §1
# [3] = system: crabgrass; test: Test B pre/postemergence crabgrass; assay type: in vivo, Digitaria sanguinalis
# Summary of the method: as §1
# [4] = system: giant foxtail; test: Test B pre/postemergence giant foxtail; assay type: in vivo, Setaria faberii
# Summary of the method: as §1
# [5] = system: morningglory; test: Test B pre/postemergence morningglory; assay type: in vivo, Ipomoea hederacea
# Summary of the method: as §1
# [6] = system: pigweed; test: Test B pre/postemergence pigweed; assay type: in vivo, Amaranthus retroflexus
# Summary of the method: as §1
# [7] = system: rape; test: Test B pre/postemergence rape; assay type: in vivo, Brassica napus
# Summary of the method: as §1
# [8] = system: soybean; test: Test B pre/postemergence soybean; assay type: in vivo, Glycine max
# Summary of the method: as §1
# [9] = system: sugar beet; test: Test B pre/postemergence sugar beet; assay type: in vivo, Beta vulgaris
# Summary of the method: as §1
# [10] = system: velvetleaf; test: Test B pre/postemergence velvetleaf; assay type: in vivo, Abutilon theophrasti
# Summary of the method: as §1
# [11] = system: wheat; test: Test B pre/postemergence wheat; assay type: in vivo, Triticum aestivum
# Summary of the method: as §1
# [12] = system: wild oat; test: Test B pre/postemergence wild oat; assay type: in vivo, Avena fatua
# Summary of the method: as §1
# [13] = system: purple nutsedge; test: Test B pre/postemergence purple nutsedge; assay type: in vivo, Cyperus rotundus
# Summary of the method: as §1
# [14] = system: rice; test: Test B flood test rice; assay type: in vivo, Oryza sativa
# Summary of the method: (§2)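 Read-out is a visual response score from 0 (no effect) to 10 (complete control), assigned by comparison with untreated controls. Treatment was applied at the 2-leaf stage, and plants stayed in the greenhouse for twelve to sixteen days before scoring.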
# [15] = system: smallflower flatsedge; test: Test B flood test smallflower flatsedge; assay type: in vivo, Cyperus difformis
# Summary of the method: as §2
# [16] = system: duck salad; test: Test B flood test duck salad; assay type: in vivo, Heteranthera limosa
# Summary of the method: as §2
# [17] = Postemergence, Rate 62 g/ha, scale 0 to 10, 0 is no effect, 10 is complete control
# [18] = Postemergence, Rate 250 g/ha, scale 0 to 10, 0 no effect, 10 complete control
# [19] = Preemergence, Rate 62 g/ha, scale 0 to 10, 0 is no effect, 10 is complete control
# [20] = Preemergence, Rate 125 g/ha, scale 0 to 10 (0 no effect, 10 complete control)
# [21] = Preemergence, Rate 250 g/ha, scale of 0 to 10 where 0 is no effect and 10 is complete control
# [22] = Preemergence, Rate 500 g/ha, scale 0 (no effect) to 10 (complete control)
# [23] = Rate 125 g/ha, Postemergence, scale 0 to 10, 0 no effect, 10 complete control
# [24] = Rate 500 g/ha, Postemergence, 0 to 10 scale (0 no effect, 10 complete control)
# [25] = Rate 125 g/ha, Postemergence section (flood test species), scale 0 to 10, 0 no effect, 10 complete control
# [26] = Rate 500 g/ha, Postemergence section of Table B, 0 to 10 scale (0 no effect, 10 complete control)
# [27] = flood test, listed under Postemergence, Rate 250 g/ha, scale 0 to 10, 0 no effect, 10 complete control
smiles,measurement,setting,value
CC(C)N(C(=O)n1oc(=O)n(-c2cc(Cl)ccc2Cl)c1=O)c1ccc(F)cc1 [Compound 16],Cocklebur plant response rating,[1]; [17],0
same,Cocklebur plant response rating,[1]; [18],0
same,"Plant response rating, Cocklebur",[1]; [19],0
same,"Plant response rating, Cocklebur",[1]; [20],0
same,"Plant response rating, Cocklebur",[1]; [21],0
same,Cocklebur plant response rating,[1]; [22],0
same,Cocklebur plant response rating,[1]; [23],0
same,Cocklebur plant response rating,[1]; [24],0
same,Corn plant response rating,[2]; [17],0
same,Corn plant response rating,[2]; [18],0
same,"Plant response rating, Corn",[2]; [19],0
same,"Plant response rating, Corn",[2]; [20],0
same,"Plant response rating, Corn",[2]; [21],0
same,Corn plant response rating,[2]; [22],0
same,Corn plant response rating,[2]; [23],0
same,Corn plant response rating,[2]; [24],0
same,Crabgrass plant response rating,[3]; [17],0
same,Crabgrass plant response rating,[3]; [18],0
same,"Plant response rating, Crabgrass",[3]; [19],0
same,"Plant response rating, Crabgrass",[3]; [20],2
same,"Plant response rating, Crabgrass",[3]; [21],2
same,Crabgrass plant response rating,[3]; [22],2
same,Crabgrass plant response rating,[3]; [23],0
same,Crabgrass plant response rating,[3]; [24],0
same,Giant foxtail plant response rating,[4]; [17],0
same,Giant foxtail plant response rating,[4]; [18],0
same,"Plant response rating, Giant foxtail",[4]; [19],0
same,"Plant response rating, Giant foxtail",[4]; [20],2
same,"Plant response rating, Giant foxtail",[4]; [21],3
same,Giant foxtail plant response rating,[4]; [22],8
same,Giant foxtail plant response rating,[4]; [23],0
same,Giant foxtail plant response rating,[4]; [24],3
same,Morningglory plant response rating,[5]; [17],1
same,Morningglory plant response rating,[5]; [18],1
same,"Plant response rating, Morningglory",[5]; [19],0
same,"Plant response rating, Morningglory",[5]; [20],0
same,"Plant response rating, Morningglory",[5]; [21],0
same,Morningglory plant response rating,[5]; [22],0
same,Morningglory plant response rating,[5]; [23],1
same,Morningglory plant response rating,[5]; [24],3
same,Redroot pigweed plant response rating,[6]; [17],0
same,Redroot pigweed plant response rating,[6]; [18],0
same,"Plant response rating, Redroot pigweed",[6]; [19],0
same,"Plant response rating, Redroot pigweed",[6]; [20],0
same,"Plant response rating, Redroot pigweed",[6]; [21],0
same,Redroot pigweed plant response rating,[6]; [22],0
same,Redroot pigweed plant response rating,[6]; [23],0
same,Redroot pigweed plant response rating,[6]; [24],0
same,Rape plant response rating,[7]; [17],0
same,Rape plant response rating,[7]; [18],0
same,"Plant response rating, Rape",[7]; [19],0
same,"Plant response rating, Rape",[7]; [20],0
same,"Plant response rating, Rape",[7]; [21],0
same,Rape plant response rating,[7]; [22],0
same,Rape plant response rating,[7]; [23],0
same,Rape plant response rating,[7]; [24],0
same,Soybean plant response rating,[8]; [17],1
same,Soybean plant response rating,[8]; [18],1
same,"Plant response rating, Soybean",[8]; [19],0
same,"Plant response rating, Soybean",[8]; [20],0
same,"Plant response rating, Soybean",[8]; [21],0
same,Soybean plant response rating,[8]; [22],0
same,Soybean plant response rating,[8]; [23],1
same,Sugarbeets plant response rating,[9]; [17],0
same,Sugarbeets plant response rating,[9]; [18],0
same,"Plant response rating, Sugarbeets",[9]; [19],0
same,"Plant response rating, Sugarbeets",[9]; [20],0
same,"Plant response rating, Sugarbeets",[9]; [21],0
same,Sugarbeets plant response rating,[9]; [22],0
same,Sugarbeets plant response rating,[9]; [23],0
same,Velvetleaf plant response rating,[10]; [17],0
same,Velvetleaf plant response rating,[10]; [18],0
same,"Plant response rating, Velvetleaf",[10]; [19],0
same,"Plant response rating, Velvetleaf",[10]; [20],0
same,"Plant response rating, Velvetleaf",[10]; [21],0
same,Velvetleaf plant response rating,[10]; [22],0
same,Velvetleaf plant response rating,[10]; [23],0
same,Wheat plant response rating,[11]; [17],0
same,Wheat plant response rating,[11]; [18],0
same,"Plant response rating, Wheat",[11]; [19],0
same,"Plant response rating, Wheat",[11]; [20],0
same,"Plant response rating, Wheat",[11]; [21],0
same,Wheat plant response rating,[11]; [22],0
same,Wheat plant response rating,[11]; [23],0
same,Wild oats plant response rating,[12]; [17],0
same,Wild oats plant response rating,[12]; [18],0
same,"Plant response rating, Wild oats",[12]; [20],0
same,"Plant response rating, Wild oats",[12]; [21],0
same,Wild oats plant response rating,[12]; [22],0
same,Wild oats plant response rating,[12]; [23],0
same,Nutsedge plant response rating,[13]; [17],0
same,Nutsedge plant response rating,[13]; [18],0
same,"Plant response rating, Nutsedge",[13]; [19],0
same,"Plant response rating, Nutsedge",[13]; [20],0
same,"Plant response rating, Nutsedge",[13]; [21],0
same,Nutsedge plant response rating,[13]; [22],0
same,Nutsedge plant response rating,[13]; [23],0
same,Nutsedge plant response rating,[13]; [24],0
same,Rice plant response rating,[14]; [17],0
same,Rice plant response rating,[14]; [25],0
same,Rice plant response rating,[14]; [26],0
same,Rice plant response rating,[14]; [27],0
same,S. Flatsedge plant response rating,[15]; [17],0
same,S. Flatsedge plant response rating,[15]; [25],0
same,S. Flatsedge plant response rating,[15]; [27],0
same,Ducksalad plant response rating,[16]; [17],0
same,Ducksalad plant response rating,[16]; [25],0
same,Ducksalad plant response rating,[16]; [26],0
same,Ducksalad plant response rating,[16]; [27],0

# Source: patent US6737383B1, “Herbicidal oxadiazolidines” (priority 1999, dated 2004)
